“Also recorded” adds a separate entry of the source.
Columns and labels:
Male Sprague-Dawley rats [1] = experiment: Loss of righting reflex (sleep-time), hypnotic response to dexmedetomidine; type: in vivo, rat; conditions: for effect of co-administration on development of tolerance to the hypnotic effect of dexmedetomidine: MK-801 100 and 400 μg/kg/hr co-administered with dexmedetomidine, challenge 100 μg/kg i.p., pumps removed 1 day prior to testing (FIG. 2C); for effect of co-administration on induction of tolerance to the hypnotic effect of dexmedetomidine: NO2-arginine 0.4-4 μg/kg/hr with dexmedetomidine 5 μg/kg/hr for 7 days (FIG. 5C)
Protocol: (§1) The experimental protocol was approved by the Animal Care and Use Committee of the Veterans Affairs Palo Alto Health Care System. Male Sprague-Dawley rats, (B&K, Fremont, Calif.) weighing 250-350 g were used. The rats were stratified to match the distribution of the weights in the groups as closely as possible. All tests were performed between 10 a.m. and 4 p.m. The number of animals for each experiment is listed in the legends.
(§2) Rats were made tolerant to the anesthetic action of an alpha-2 agonist, dexmedetomidine, as described by Reid K et al (ibid). Briefly, rats were administered dexmedetomidine chronically using Alzet® osmotic minipumps (Model 2002 or 1007D, Alza, Palo Alto Calif.), which discharge their contents at a mean pumping rate of 0.48±0.02 μl/h. The pumps were inserted subcutaneously during isoflurane anesthesia in the dorsal thoracic region and loaded to deliver 5 μg/kg/h for 7 days to induce hypnotic tolerance and 10 μg/kg/h for 14 days to induce analgesic tolerance. […] When MK-801 or Nω-nitro-L-arginine (NO2-arginine) was co-administered with dexmedetomidine the MK-801 was included in the same pump. […] For the MK-801 and Nω-nitro-L-arginine (NO2-arginine) hypnotic experiments the pumps were removed one day prior to behavioral testing. In all other experiments the pumps were not removed prior to testing.
Hypnotic response to dexmedetomidine, was defined by the loss of the rat's righting reflex (LORR), and its duration was measured in minutes and referred to as sleep-time. The duration of the LORR was assessed as the time from the rat's inability to right itself when placed on its back until the time that it spontaneously reverted, completely, to the prone position. The hypnotic response test was performed between 10 a.m. and 6 p.m. as described in Reid et al, 1994.
(§3) The NOS inhibitor Nω-nitro-L-arginine (NO2-arginine) (Sigma) and the NMDA antagonists MK-801 (RBI) and ketamine (Sigma) were diluted in normal saline and acutely administered intraperitoneally or administered chronically by means of Alzet® osmotic minipumps (Model 2002 or 1007D, Alza, Palo Alto Calif.). These compounds were co-administered with dexmedetomidine by including both drugs in one pump.
(§4) LORR and tail flick data was analyzed using the analysis of variance (ANOVA) followed by post hoc Bonferroni tests or Dunnett's multiple comparison test or t-test where appropriate.

Male Sprague-Dawley rats [2] = experiment: Tail flick response to a noxious thermal stimulus (analgesic action of dexmedetomidine); type: in vivo, rat; conditions: for effect of acute administration on the analgesic action of dexmedetomidine: tail flick 40 min later
Protocol: as §1, §2
Nociceptive response was assessed by the tail flick response to a noxious thermal stimulus 40 minutes after the administration of the dexmedetomidine challenge dose. A high intensity light beam focused on the tail and the time for the rat to move its tail out of the light was recorded as tail flick latency. This method has been described previously in the literature (Guo T Z et al, ibid). The latencies from three sites on the tail were averaged. A cut-off time of 10 sec was predetermined to prevent tissue damage. Baseline measurements consist of a set of three tail flick determinations at 2 min intervals.
as §3, §4

Male Sprague-Dawley rats [3] = conditions: previously demonstrated (Guo T Z et al); cited from earlier work
NMDA receptor = conditions: 80% xenon; cultured hippocampal neurons; cited from earlier work
[4] = 20° C. and normal pressure; cited from earlier work
[5] = chronic exposure to dexmedetomidine for 14 days (10 μg/kg/h) (FIG. 1B)

For `Cc1cccc([C@H](C)c2cnc[nH]2)c1C` [dexmedetomidine], the “hypnotic effect of dexmedetomidine (duration of loss of righting reflex), dose response” value (Male Sprague-Dawley rats [1]; rats chronically treated with dexmedetomidine 5 μg/kg/h for 7 days, even when large doses were given (FIG. 1A)) was “almost completely absent”, the “hypnotic effect of dexmedetomidine (duration of loss of righting reflex), dose response” value (Male Sprague-Dawley rats [1]; sham treated animals, challenge doses (FIG. 1A)) was “dose dependently increased” and the “maximal analgesic effect of dexmedetomidine” value (Male Sprague-Dawley rats [2]; [5]) was “reduced the maximal effect”. The “shift of the analgesic dose response curve for dexmedetomidine” value (Male Sprague-Dawley rats [2]; [5]) was “about 2 fold” and the “dose of maximal efficacy of hypnotic action (biphasic dose response curve)” value (Male Sprague-Dawley rats [3]) was “around 300 μg/kg”.

In the case of `CNC1(c2ccccc2Cl)CCCCC1=O` (stereo not shown) [ketamine], the “effect on dexmedetomidine sedation when administered alone” value (Male Sprague-Dawley rats [1]; ketamine 400 μg/kg/hr alone (FIG. 3C)) is reported as “without having an effect on dexmedetomidine sedation; also recorded: had no effect by itself”, the “effect of co-administration on tolerance to the hypnotic (sedative) effect of dexmedetomidine” value (Male Sprague-Dawley rats [1]; ketamine 400 μg/kg/hr concurrently with dexmedetomidine, challenge 150 μg/kg i.p., pumps left in place (FIG. 3C)) is reported as “reverses tolerance; also recorded: did reverse tolerance” and the “effect of acute administration on established tolerance to the hypnotic effect of dexmedetomidine” value (Male Sprague-Dawley rats [1]; ketamine 10 or 20 mg/kg acute, tolerant rats (FIG. 3B)) is reported as “does not block dexmedetomidine-induced tolerance; also recorded: could not reverse tolerance”. The “effect of acute administration on dexmedetomidine-induced sleep time” value (Male Sprague-Dawley rats [1]; ketamine acute, dexmedetomidine 150 μg/kg i.p. (FIG. 3A)) was “has no effect on the sleep time” and the “effect of acute administration on dexmedetomidine-induced sleep time” value (Male Sprague-Dawley rats [1]; ketamine acute, dexmedetomidine 150 μg/kg i.p. (FIG. 3A), listed as Ketamine) was “did not affect the sleep time”.

With `C[C@]12N[C@H](Cc3ccccc31)c1ccccc12` [MK-801] the “effect on dexmedetomidine-induced sleep time” value (Male Sprague-Dawley rats [1]; MK-801 50 μg/kg acute) was “has no effect on dexmedetomidine-induced sleep time”, the “effect of acute administration on dexmedetomidine-induced sleep time” value (Male Sprague-Dawley rats [1]; MK-801 10-200 μg/kg, naïve animals, dexmedetomidine 100 μg/kg i.p. (FIG. 2A)) was “did not affect sleep time” and the “effect of co-administration on development of tolerance to the hypnotic effect of dexmedetomidine” value (Male Sprague-Dawley rats [1]) was “blocks tolerance; also recorded: able to prevent the development of tolerance”. For the same molecule, the “effect of co-administration on development of tolerance to the hypnotic effect of dexmedetomidine” value (Male Sprague-Dawley rats [1]; listed as dizolcipine) was “blocked”, the “effect of acute administration on expression of tolerance to the hypnotic effect of dexmedetomidine” value (Male Sprague-Dawley rats [1]; MK-801 acute, rats already tolerant (dexmedetomidine 5 μg/kg/h, 7 days) (FIG. 2B)) was “does not block dexmedetomidine-induced tolerance; also recorded: did not affect the expression of tolerance” and the “effect of acute administration on expression of tolerance to the hypnotic effect of dexmedetomidine” value (Male Sprague-Dawley rats [1]; MK-801 acute, rats already tolerant (dexmedetomidine 5 μg/kg/h, 7 days) (FIG. 2B), listed as dizolcipine) was “does not prevent the expression of tolerance”. For the same molecule, the “effect of acute low dose on expression of tolerance to the analgesic effect of dexmedetomidine” value (Male Sprague-Dawley rats [2]; MK-801 50 μg/kg acute, rats tolerant after dexmedetomidine 10 μg/kg/hr for 14 days (FIG. 4B)) was “does not prevent the expression of tolerance; also recorded: did not reverse the expression of tolerance”, the “effect of higher dose on the analgesic action of dexmedetomidine” value (Male Sprague-Dawley rats [2]; MK-801 400 μg/kg acute, control animals) was “antagonized the analgesic action of dexmedetomidine” and the “effect of acute higher dose on tolerance to the analgesic effect of dexmedetomidine” value (Male Sprague-Dawley rats [2]; MK-801 400 μg/kg acute, tolerant animals) was “unable to reverse tolerance”. The “effect of acute administration on the analgesic action of dexmedetomidine” value (Male Sprague-Dawley rats [2]; MK-801 15 min before dexmedetomidine 50 μg/kg, naive rats (FIG. 4A)) was “suppressed its analgesic action at the two highest doses”, the “effect of co-administration on development of analgesic tolerance to dexmedetomidine” value (Male Sprague-Dawley rats [2]; MK-801 (0.4 μg/kg/hr as printed; maximum dose tolerated by the rat) with dexmedetomidine 10 μg/kg/hr for 14 days (FIG. 4C)) was “does not prevent the development of tolerance; also recorded: had no effect on the development of analgesic tolerance” and the “effect of low dose on dexmedetomidine-induced analgesia” value (Male Sprague-Dawley rats [2]; low dose of MK-801 (50 μg/kg) acute, control animals (FIG. 4B)) was “did not have any affect on dexmedetomidine-induced analgesia”. The “effect on tail flick latency / dexmedetomidine's analgesic action when administered alone” value (Male Sprague-Dawley rats [2]; same chronic dose of MK-801 alone (FIG. 4C)) was “does not affect dexmedetomidine's analgesic action; also recorded: had no effect on tail flick latency”.

For `N=C(NCCC[C@H](N)C(=O)O)N[N+](=O)[O-]` [NO2-arginine, Nω-nitro-L-arginine], the “effect of co-administration on induction of tolerance to the hypnotic effect of dexmedetomidine” value (Male Sprague-Dawley rats [1]) was “dose-dependently blocks the development of tolerance; also recorded: attenuated”, the “effect of co-administration on induction of tolerance to the hypnotic effect of dexmedetomidine” value (Male Sprague-Dawley rats [1]; listed as NO2-Arginine) was “blocked” and the “effect of acute administration on dexmedetomidine-induced sleep time” value (Male Sprague-Dawley rats [1]; NO2-arginine 15 min prior to dexmedetomidine 100 μg/kg i.p., drug naive rats (FIG. 5A)) was “dependently increases the dexmedetomidine-induced sleep time; also recorded: increased sleep time only at high doses”. For the same molecule, the “effect of acute administration on expression of tolerance to the hypnotic effect of dexmedetomidine” value (Male Sprague-Dawley rats [1]; low doses of NO2-arginine acute, after 7-day dexmedetomidine, challenge 100 μg/kg (FIG. 5B)) was “does not reverse the tolerance; also recorded: did not reverse its expression”, the “effect of acute administration on expression of tolerance to the hypnotic effect of dexmedetomidine” value (Male Sprague-Dawley rats [1]; low doses of NO2-arginine acute, after 7-day dexmedetomidine, challenge 100 μg/kg (FIG. 5B), listed as NO2-Arginine) was “does not prevent the expression of tolerance” and the “effect on dexmedetomidine-induced sleep time when given alone” value (Male Sprague-Dawley rats [1]; treatment with just NO2-arginine 1.25 μg/kg/hr (FIG. 5C, last column)) was “does not affect the dexmedetomidine-induced sleep time; also recorded: did not affect the dexmedetomidine sleep time”. The “effect on dexmedetomidine-induced analgesia in control animals” value (Male Sprague-Dawley rats [2]; NO2-arginine 4 μg/kg/hr (FIG. 6C)) was “had no effect on dexmedetomidine-induced analgesia in control animals”, the “effect on tail flick latency when administered alone” value (Male Sprague-Dawley rats [2]; NO2-arginine 4 μg/kg/hr alone (data not shown)) was “had no effect on tail flick latency” and the “effect of co-administration on analgesic tolerance to dexmedetomidine” value (Male Sprague-Dawley rats [2]; NO2-arginine 4 μg/kg/hr with dexmedetomidine 10 μg/kg/hr for 14 days (FIG. 6C)) was “has no effect on analgesic tolerance; also recorded: had no effect on analgesic tolerance”. For the same molecule, the “effect of co-administration on analgesic tolerance to dexmedetomidine” value (Male Sprague-Dawley rats [2]; NO2-arginine 8 μg/kg/hr with dexmedetomidine 10 μg/kg/hr for 14 days (FIG. 6C)) was “also ineffective; also recorded: ineffective at reversing tolerance”, the “effect of acute administration on expression of tolerance to the analgesic action of dexmedetomidine” value (Male Sprague-Dawley rats [2]; NO2-arginine 1 and 20 mg/kg i.p., dexmedetomidine 100 μg/kg i.p., tolerant rats (FIG. 6B)) was “does not reverse dexmedetomidine tolerance; also recorded: did not reverse the expression of tolerance” and the “effect of acute administration on the analgesic action of dexmedetomidine” value (Male Sprague-Dawley rats [2]; NO2-arginine i.p. 15 min prior to dexmedetomidine 50 μg/kg i.p., naïve rats (FIG. 6A)) was “has no effect on the analgesic action of dexmedetomidine; also recorded: did not affect the analgesic action of dexmedetomidine”.

For `[Xe]` [xenon], the “reduction of NMDA-activated currents” value (NMDA receptor) is listed as “up to 60%” and the “concentration of xenon dissolved or dispersed in lipid emulsion” value [4] is listed as 0.2 to 10 ml per ml of emulsion.
